Our source for the EC50 values is patent US20260317309A1, “N-HETEROCYLIC GPCR RECEPTOR AGONISTS, PHARMACEUTICAL COMPOSITIONS COMPRISING THE SAME, AND METHODS FOR THEIR USE” (Carmot Therapeutics, Inc., priority 2022, published 2026).

In this assay the target is T1, human GLP-1 receptor (Homo sapiens, UniProt P43220).
T1 construct: expressed in transfected cells
As to the kind of experiment: GLP-1R cAMP assay (cAMP accumulation in CHO cells stably overexpressing the human GLP-1 receptor, HitHunter kit). As to conditions: CHO cells stably overexpressing human GLP-1R, 30 min, 20-point dose response in triplicate. In kind it is cell-based. As to the method:
CAMP accumulation was measured in Chinese hamster ovary (CHO) cells (10,000 cells/well) stably overexpressing the human GLP-1 receptor using the HitHunter CAMP Assay for Small Molecules Kit (Eurofins). Briefly, cells were grown in Ham's F12 Nutrient Mix with 10% FBS, and lifted with Cell Dissociation Buffer, Enzyme free, PBS based (ThermoFisher). Cells were pelleted, and resuspended in Hank's buffered saline solution with 10 mM HEPES, and 625 μM 3-isobutyl-1-methylxanthine. The anti-cAMP antibody reagent was then added to cells at a 1:2 ratio and 5 μL of mixture was seeded in 384-well small volume white assay plates, at 10,000 cells/well. Cells were then treated with 50 nL compound using an ECHO 550 acoustic dispenser (Labcyte) in a 20-point dose response format in triplicate for 30 min. Cells were then lysed, and detection reagents added according to the manufacturer's protocol. After overnight incubation, luminescence was measured using a Perkin Elmer Envision plate reader. Dose response curves were analyzed using GraphPad Prism 9.0.
In the Table, EC50 values are designated as follows: • A: 0 nM<EC50<0.1 nM; • B: 0.1 nM≤EC50<1.0 nM; • C: 1.0 nM≤EC50<10.0 nM; • D: 10.0 nM≤EC50<100 nM; • E: 100 nM≤EC50<500 nM; and • F: ≥500 nM

pEC50: −log10 of the molar value. Some results are limits rather than exact numbers.

T1 sequence (P43220 24-463): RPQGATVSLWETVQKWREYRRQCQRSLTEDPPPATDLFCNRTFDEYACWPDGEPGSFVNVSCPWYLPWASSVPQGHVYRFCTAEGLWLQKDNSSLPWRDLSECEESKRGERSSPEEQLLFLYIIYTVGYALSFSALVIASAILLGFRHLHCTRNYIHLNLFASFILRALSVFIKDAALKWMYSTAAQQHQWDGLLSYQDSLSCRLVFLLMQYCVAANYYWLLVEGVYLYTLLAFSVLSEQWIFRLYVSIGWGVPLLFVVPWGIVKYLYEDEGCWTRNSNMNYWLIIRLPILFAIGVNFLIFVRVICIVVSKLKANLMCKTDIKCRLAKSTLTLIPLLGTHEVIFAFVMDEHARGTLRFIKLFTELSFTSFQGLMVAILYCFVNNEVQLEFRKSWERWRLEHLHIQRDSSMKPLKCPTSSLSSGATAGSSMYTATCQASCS

`C[C@H]1C[C@@H](Oc2ccnc(COc3ncc(Cl)cc3F)n2)CCN1Cc1nc2ccc(C(=O)O)cc2n1CCOCC(F)(F)F` [Compound 595, 2-{[(2S,4S)-4-[(2-{[(5-chloro-3-fluoropyridin-2-yl)oxy]methyl}pyrimidin-4-yl)oxy]-2-methylpiperidin-1-yl]methyl}-1-[2-(2,2,2-trifluoroethoxy)ethyl]-1H-1,3-benzodiazole-6-carboxylic acid] had a pEC50 of 9.00 to 10.00. The compound `C[C@H]1C[C@@H](Oc2ccnc(COc3ccc(C#N)cc3F)n2)CCN1Cc1nc2ccc(C(=O)O)cc2n1CCOCC(F)(F)F` [Compound 596, 2-{[(2S,4S)-4-({2-[(4-Cyano-2-fluorophenoxy)methyl]pyrimidin-4-yl}oxy)-2-methylpiperidin-1-yl]methyl}-1-[2-(2,2,2-trifluoroethoxy)ethyl]-1H-1,3-benzodiazole-6-carboxylic acid] had a pEC50 greater than 10.00. `C[C@H]1C[C@@H](Oc2ccnc(COc3ncc(Cl)cc3F)n2)CCN1Cc1nc2c(F)cc(C(=O)O)cc2n1C[C@@H]1CCO1` [Compound 597, 2-{[(2S,4S)-4-[(2-{[(5-Chloro-3-fluoropyridin-2-yl)oxy]methyl}pyrimidin-4-yl)oxy]-2-methylpiperidin-1-yl]methyl}-4-fluoro-1-{[(2S)-oxetan-2-yl]methyl}-1H-1,3-benzodiazole-6-carboxylic acid] showed a pEC50 greater than 10.00. The compound `C[C@@H](Cn1c(CN2CC[C@H](Oc3ccnc(COc4ccc(F)cc4F)n3)C[C@@H]2C)nc2ccc(C(=O)O)cc21)OCC(F)(F)F` [Compound 598, 2-{[(2S,4S)-4-({2-[(2,4-Difluorophenoxy)methyl]pyrimidin-4-yl}oxy)-2-methylpiperidin-1-yl]methyl}-1-[(2S)-2-(2,2,2-trifluoroethoxy)propyl]-1H-1,3-benzodiazole-6-carboxylic acid] gave a pEC50 of 9.00 to 10.00. In the case of `N#Cc1ccc(OCc2nccc(O[C@H]3CCN(Cc4nc5ccc(C(=O)O)cc5n4C[C@@H]4CCO4)[C@@H](C(F)(F)F)C3)n2)c(F)c1` [Compound 599, 2-{[(2R,4S)-4-({2-[(4-cyano-2-fluorophenoxy)methyl]pyrimidin-4-yl}oxy)-2-(trifluoromethyl)piperidin-1-yl]methyl}-1-{[(2S)-oxetan-2-yl]methyl}-1H-1,3-benzodiazole-6-carboxylic acid], the pEC50 was 9.00 to 10.00.

As for `COC1(Cn2c(CN3CC[C@H](Oc4ccnc(COc5ccc(F)cc5F)n4)C[C@@H]3C)nc3ccc(C(=O)O)cc32)CCC1` [Compound 600, 2-{[(2S,4S)-4-({2-[(2,4-Difluorophenoxy)methyl]pyrimidin-4-yl}oxy)-2-methylpiperidin-1-yl]methyl}-1-[(1-methoxycyclobutyl)methyl]-1H-1,3-benzodiazole-6-carboxylic acid], the pEC50 is 9.00 to 10.00.

`C[C@H]1C[C@@H](Oc2ccnc(COc3ccc(F)cc3C#N)n2)CCN1Cc1nc2ccc(C(=O)O)cc2n1CCOCC(F)(F)F` [Compound 601, 2-{[(2S,4S)-4-({2-[(2-cyano-4-fluorophenoxy)methyl]pyrimidin-4-yl}oxy)-2-methylpiperidin-1-yl]methyl}-1-[2-(2,2,2-trifluoroethoxy)ethyl]-1H-1,3-benzodiazole-6-carboxylic acid]: the pEC50 is greater than 10.00. As to `C[C@H](Cn1c(CN2CC[C@H](Oc3ccnc(COc4ncc(Cl)cc4F)n3)C[C@@H]2C)nc2ccc(C(=O)O)cc21)OC(F)F` [Compound 602, 2-{[(2S,4S)-4-[(2-{[(5-Chloro-3-fluoropyridin-2-yl)oxy]methyl}pyrimidin-4-yl)oxy]-2-methylpiperidin-1-yl]methyl}-1-[(2R)-2-(difluoromethoxy)propyl]-1H-1,3-benzodiazole-6-carboxylic acid], the pEC50 is 9.00 to 10.00. Compound `C[C@H]1C[C@@H](Oc2ccnc(COc3ccc(Cl)cn3)n2)CCN1Cc1nc2c(F)cc(C(=O)O)cc2n1C[C@@H]1CCO1` [Compound 603, 2-{[(2S,4S)-4-[(2-{[(5-Chloropyridin-2-yl)oxy]methyl}pyrimidin-4-yl)oxy]-2-methylpiperidin-1-yl]methyl}-4-fluoro-1-{[(2S)-oxetan-2-yl]methyl}-1H-1,3-benzodiazole-6-carboxylic acid] had a pEC50 greater than 10.00. Compound `C[C@H]1C[C@@H](Oc2ccnc(COc3ccc(C#N)cn3)n2)CCN1Cc1nc2c(F)cc(C(=O)O)cc2n1C[C@@H]1CCO1` [Compound 604, 2-{[(2S,4S)-4-[(2-{[(5-cyanopyridin-2-yl)oxy]methyl}pyrimidin-4-yl)oxy]-2-methylpiperidin-1-yl]methyl}-4-fluoro-1-{[(2S)-oxetan-2-yl]methyl}-1H-1,3-benzodiazole-6-carboxylic acid] showed a pEC50 of 9.00 to 10.00. For `O=C(O)c1cc(F)c2nc(CN3CCC(Oc4ccnc(COc5ncc(Cl)cc5F)n4)CC3)n(C[C@@H]3CCO3)c2c1` [Compound 605, 2-({4-[(2-{[(5-Chloro-3-fluoropyridin-2-yl)oxy]methyl}pyrimidin-4-yl)oxy]piperidin-1-yl}methyl)-4-fluoro-1-{[(2S)-oxetan-2-yl]methyl}-1H-1,3-benzodiazole-6-carboxylic acid], the pEC50 was greater than 10.00. The compound `C[C@H]1C[C@@H](Oc2ccnc(COc3ncc(F)cc3F)n2)CCN1Cc1nc2c(F)cc(C(=O)O)cc2n1C[C@@H]1CCO1` [Compound 606, 2-(((2S,4S)-4-((2-(((3,5-difluoropyridin-2-yl)oxy)methyl)pyrimidin-4-yl)oxy)-2-methylpiperidin-1-yl)methyl)-4-fluoro-1-(((S)-oxetan-2-yl)methyl)-1H-benzo[d]imidazole-6-carboxylic acid] showed a pEC50 greater than 10.00. For the compound `C[C@H]1C[C@@H](Oc2ccnc(COc3ncc(C#N)cc3F)n2)CCN1Cc1nc2c(F)cc(C(=O)O)cc2n1C[C@@H]1CCO1` [Compound 607, 2-{[(2S,4S)-4-[(2-{[(5-Cyano-3-fluoropyridin-2-yl)oxy]methyl}pyrimidin-4-yl)oxy]-2-methylpiperidin-1-yl]methyl}-4-fluoro-1-[(oxetan-2-yl)methyl]-1H-1,3-benzodiazole-6-carboxylic acid], the pEC50 is greater than 10.00.

Consider `CC[C@H]1C[C@@H](Oc2ccnc(COc3ncc(Cl)cc3F)n2)CCN1Cc1nc2ccc(C(=O)O)cc2n1C[C@@H]1CCO1` [Compound 608, 2-{[(2S,4S)-4-[(2-{[(5-Chloro-3-fluoropyridin-2-yl)oxy]methyl}pyrimidin-4-yl)oxy]-2-ethylpiperidin-1-yl]methyl}-1-[(oxetan-2-yl)methyl]-1H-1,3-benzodiazole-6-carboxylic acid], for which the pEC50 is 9.00 to 10.00. The value for `CC[C@@H]1C[C@H](Oc2ccnc(COc3ncc(Cl)cc3F)n2)CCN1Cc1nc2ccc(C(=O)O)cc2n1C[C@@H]1CCO1` [Compound 609, 2-{[(2R,4R)-4-[(2-{[(5-Chloro-3-fluoropyridin-2-yl)oxy]methyl}pyrimidin-4-yl)oxy]-2-ethylpiperidin-1-yl]methyl}-1-[(oxetan-2-yl)methyl]-1H-1,3-benzodiazole-6-carboxylic acid] was 7.00 to 8.00; that for `C[C@H]1C[C@@H](Oc2ccnc(COc3ccc(F)cc3F)n2)CCN1Cc1nc2ccc(C(=O)O)cc2n1C[C@H]1CCS1(=O)=O` [Compound 610, 2-(((2S,4S)-4-((2-((2,4-difluorophenoxy)methyl)pyrimidin-4-yl)oxy)-2-methylpiperidin-1-yl)methyl)-1-(((R)-1,1-dioxidothietan-2-yl)methyl)-1H-benzo[d]imidazole-6-carboxylic acid] was 9.00 to 10.00; that for `C[C@H]1C[C@@H](Oc2ccnc(COc3ccc(F)cc3F)n2)CCN1Cc1nc2ccc(C(=O)O)cc2n1C[C@@H]1CCS1(=O)=O` [Compound 611, 2-(((2S,4S)-4-((2-((2,4-difluorophenoxy)methyl)pyrimidin-4-yl)oxy)-2-methylpiperidin-1-yl)methyl)-1-(((S)-1,1-dioxidothietan-2-yl)methyl)-1H-benzo[d]imidazole-6-carboxylic acid] was 9.00 to 10.00. `C[C@@H](Cn1c(CN2CC[C@H](Oc3ccnc(COc4ccc(F)cc4F)n3)C[C@@H]2C)nc2ccc(C(=O)O)cc21)OC1CC1` [Compound 612, 1-((S)-2-cyclopropoxypropyl)-2-(((2S,4S)-4-((2-((2,4-difluorophenoxy)methyl)pyrimidin-4-yl)oxy)-2-methylpiperidin-1-yl)methyl)-1H-benzo[d]imidazole-6-carboxylic acid] showed a pEC50 of 8.00 to 9.00. The value for `O=C(O)c1cc(F)c2nc(CN3CCC(Oc4ccnc(COc5ncc(Cl)cc5F)c4)CC3)n(C[C@@H]3CCO3)c2c1` [Compound 613, (S)-2-((4-((2-(((5-Chloro-3-fluoropyridin-2-yl)oxy)methyl)pyridin-4-yl)oxy)piperidin-1-yl)methyl)-4-fluoro-1-(oxetan-2-ylmethyl)-1H-benzo[d]imidazole-6-carboxylic acid] was 9.00 to 10.00; that for `C[C@H]1C[C@@H](Oc2ccnc(NCc3ccc(F)cc3F)n2)CCN1Cc1nc2ccc(C(=O)O)cc2n1C[C@@H]1CCO1` [Compound 614, 2-(((2S,4S)-4-((2-((2,4-Difluorobenzyl)amino)pyrimidin-4-yl)oxy)-2-methylpiperidin-1-yl)methyl)-1-(((S)-oxetan-2-yl)methyl)-1H-benzo[d]imidazole-6-carboxylic acid] was 9.00 to 10.00.
